Test results taken from patent US20240366571A1, “MODULATORS OF SK4 POTASSIUM CHANNEL AND USES THEREOF” (Ramot at Tel-Aviv University Ltd., priority 2022, published 2024).
Entries after “also recorded” stand apart in the source; their conditions may differ.

Legend:
[1] = molecular target: T1, WT SK4 channels (Homo sapiens, UniProt O15554); assay: Inside-out macro-patch recording of WT SK4 channels in transfected CHO cells; assay type: cell-based
T1 construct: expressed in transfected cells; host or cells: CHO cells
Protocol: Inside-out macro-patch recording: To measure the Ca^2+ concentration dependence for SK4 channel activation, CHO cells were co-transfected with plasmids encoding WT SK4 (1 μg) and WT CaM (1 μg) using the Lipofectamine reagent at a ratio of 1:2. The cells were transfected 48 hours prior to recordings. The patch pipettes were pulled and fire-polished with a MF-900 micro-forge (Narashige) to reach an internal diameter of […]. The resistance of the patch electrodes ranged from 2-3 MΩ. The pipette solution contained 135 mM KCl, 1 mM MgSO4, 0.91 mM CaCl2, and 10 mM HEPES at pH 7.3. The bath solution contained 135 mM KCl, 5 mM EGTA, and 10 mM HEPES at pH 7.3. EGTA was used to titer the different Ca^2+ concentration solutions, calculated using the software by C. Patton of Stanford University (http://maxchelator(dot)stanford(dot)edu/). Currents were recorded by 10 repetitive 1 second duration voltage ramps from −100 mV to +100 mV from a holding potential of 0 mV. The current amplitudes in response to increasing Ca^2+ concentrations were normalized to those obtained at a saturating Ca^2+ concentration (3 μM). Furthermore, to determine the Ca^2+ concentration dependence for activation in the presence of a tested compound, such as the exemplary compound BA6b9 (10 μM), the current amplitudes were normalized to those obtained at large maximal Ca^2+ concentration of 10 μM. For PIP2-dependent activation, PIP2 affinity to the SK4 channel was also examined in the inside-out configuration. The dose-response curve for PIP2 was measured with increasing concentrations of diC8-PIP2 in the presence of 1 μM Ca^2+. The diC8-PIP2 effect on the channel current was measured after complete depletion of the native PIP2 using sonicated poly-L-lysine (PLL) 50 μg/ml and a subsequent 2-minute washout. […] Apparent EC50 values for Ca^2+ or diC8-PIP2 were determined by fitting the data points to a standard dose-response curve Y=100/(1+10^(log EC(50)−X)*HillSlope).
The calcium dependence of the human SK4 K^+ channel in transfected CHO cells was characterized using inside-out macro-patches. The expressed currents were recorded in response to voltage ramps (−100 millivolt (mV) to +100 mV for 1 seconds) and by increasing the free-Ca^2+ concentrations applied to the internal face of the membrane. […]
To examine whether PIP2 is involved in the modulation of the SK4 channel, channel trafficking to the plasma membrane was increased by co-transfecting CHO cells with plasmid DNAs encoding for the channel and for wild type (WT) CaM. The resulting currents were recorded from inside-out macro-patches, where the intracellular solution contained a saturating concentration of 1 μM free-Ca^2+, as shown in FIG. 1B (see, black plot).

[2] = molecular target: T2, human SK4 (Homo sapiens, UniProt O15554); assay: Whole-cell patch-clamp of WT SK4 K+ currents in transfected CHO cells; assay type: cell-based
T2 construct: expressed in transfected cells; host or cells: CHO cells
Protocol: Constructs: For CHO cell transfection, the following were cloned: human SK1, rat SK2, human SK3, and rat calmodulin into the pcDNA3 vector, human SK4 into pEGFP-C1 vector, and PIP4,5-kinase into an IRES-dsRed plasmid. The mutations were introduced using the PCR-based QuikChange™ site-directed mutagenesis (Stratagene®) and were verified by full sequencing of the entire plasmid vector.
Cell Culture and Transfection: Chinese hamster ovary (CHO) cells were grown in Dulbecco's modified Eagle's medium supplemented with 2 millimolar (mM) glutamine, 10% fetal calf serum, and antibiotics. In brief, 40,000 cells seeded on poly-L-lysine-coated glass coverslips (13 millimeter (mm) in diameter) in a 24-multiwell plate were transfected with 0.5 microgram (μg) pEGFP-SK4/0.5 μg mutant SK4, 1.2 μg dsRed-PIP4,5-kinase or with 1 μg SK1/SK2/SK3 together with pIRES-CD8 (0.3 μg) as a marker for transfection. Transfection was performed using TransIT-LT1 Transfection Reagent (Mirus Bio) according to the manufacturer's protocol. For electrophysiology, transfected cells were visualized approximately 40 hours after transfection with a Zeiss Axiovert 35 inverted florescence microscope.
Whole-cell patch-clamp recording: Voltage-clamp recordings were performed using the whole-cell configuration of the patch-clamp technique. Signals were amplified using an […] patch-clamp amplifier (Molecular Devices), sampled at 5 kHz and filtered at 2.4 kHz via a four pole Bessel low pass filter. Data were acquired using pClamp™ 10.5 software in conjunction with an Axon™ DigiData® 1440A interface (Molecular Devices). The patch pipettes were pulled from borosilicate glass (Harvard Apparatus) with a resistance of 3-5 megaohms (MΩ). The intracellular pipette solution contained 130 mM KCl, 5 mM EGTA, 10 mM HEPES, pH 7.3 (adjusted with KOH), and CaCl2 calculated for a final concentration of 1 μM free-Ca^2+, by MAXCHELATOR (WEBMAXC STANDARD) software, with sucrose added to adjust osmolarity to 290 mosM. The external solution (310 mosM) contained 140 mM NaCl, 4 mM KCl, 1.8 mM CaCl2, 1.2 mM MgCl2, 11 mM glucose, and 5.5 mM HEPES adjusted with NaOH to pH 7.3. CHO cells were held at −90 millivolt (mV) and SK4 K^+ currents were activated using a voltage ramp protocol from −100 mV to +60 mV for 150 milliseconds. Electrophysiological data analysis was performed using the Clampfit program (pClamp™ 10.5; Molecular Devices).
Some of the compounds were tested by comparing trace of WT SK4 channel currents in the absence and presence of 20 μM of the tested compound.

- lowering of the sensitivity of SK4 channels to Ca2+ ([1]; 10 μM compound): about 7 fold
- inhibition at 10 µM ([1]; CHO, 10 μM, 1 μM free-Ca2+, read-out: inhibition of SK4 currents in inside-out macro-patches): 66%
- inhibition at 20 µM ([2]; CHO, 20 μM, whole-cell): 56%
- SK4 K+ channel modulating activity ([2]; WT SK4 currents in absence and presence of 20 μM compound): inhibited; also recorded: Inhibitor
Structure (SMILES): CCCCCCCn1c(=O)oc2ccccc21 [BA6b9, 3-heptylbenzo[d]oxazol-2(3H)-one]
